Entries after “also recorded” stand apart in the source; their conditions may differ.
How the values were obtained:
[1] = tested on: Salmonella typhimurium TA98, TA100, TA1535, TA1537 and Escherichia coli WP2uvrA; assay: Bacterial reverse mutation (Ames) assay, overall over five tester strains; assay type: cell-based; details: up to 2500 μg/plate
Description: (§1) Pretomanid and metabolite M50 were evaluated over a range of concentrations, with and without an added metabolic activation system, in five tester strains: Salmonella typhimurium histidine auxotrophs TA98, TA100, TA1535, and TA1537 [9] and the Escherichia coli tryptophan auxotroph WP2uvrA. S. typhimurium strains were received from Dr. Bruce Ames, Department of Biochemistry, University of California (Berkeley, CA). The E. coli strain was received from The National Collection of Industrial Bacteria, Torrey Research Station, Aberdeen, Scotland (United Kingdom). The metabolic activation system was a liver homogenate (S9) mix. The S9 component was prepared from male Sprague-Dawley rats that had been injected (intraperitoneally) with Aroclor^TM 1254 at 500 mg/kg, 5 days before sacrifice. The S9 mix was prepared immediately before use and contained 10% S9, 5 mM glucose-6-phosphate, 4 mM β-nicotinamide adenine dinucleotide phosphate, 8 mM MgCl2 and 33 mM KCl in a 100 mM phosphate buffer at pH 7.4. Pretomanid was tested at 0.05 to 5000 μg/plate. Metabolite M50 was tested at 78 to 2500 μg/plate. A negative (solvent) control culture and appropriate positive control cultures were included in each assay.
(§2) Bacteria were exposed to test materials by the plate incorporation method originally described by Ames et al and updated by Maron and Ames. Bottom agar was Vogel-Bonner minimal medium E [12] with 1.5% (w/v) agar, and the top Agar was 0.7% (w/v) agar and 0.5% (w/v) NaCl. After incubation, cultures were evaluated using a dissecting microscope for precipitation or cytotoxicity, and revertant colonies were counted. The mean numbers of revertant colonies in various cultures were compared to reach conclusions about assay validity and mutagenic potential. For the test article to be evaluated positive, it must cause a dose-related increase in the mean revertants per plate of at least one tester strain with a minimum of two increasing concentrations of test article.

[2] = Toxicokinetic assessment in wild-type CByB6F1 mice (Day 14); assay type: in vivo; details: for Mouse M50 AUC0-24 as multiple of estimated human M50 AUC0-24: highest dose, human 200 mg/day
Description: TK animals were included for the vehicle control (n = 4 sex) and pretomanid-treated groups (n = 10 sex/group). The TK cohort animals were dosed by oral gavage once daily for 14 consecutive days.
Toxicokinetic blood samples (300 μL for males and 250 μL for females) were collected in K3EDTA tubes after 14 doses from the TK cohort via retro-orbital bleeding under 70% CO2/30% O2 anesthesia. On Day 14, control mice were bled once 2 hours after dosing. On Day 14 and 15, Pretomanid-treated mice were bled predose, 0.5, 1, 3, 6, and 24 hours post dose. TK animals were euthanized after their final blood collection.
Collected blood was stored on wet ice until the samples were processed to plasma. Blood samples were centrifuged at 4±2°C and 8000 g for 5 minutes. Plasma was snap frozen in liquid nitrogen and stored in a deep freezer (≤−60°C) within 60 minutes of bleeding the TK animals.
Pretomanid and the M50 metabolite were quantified in mouse plasma by liquid chromatography-tandem mass spectrometry (LC-MS/MS) after protein precipitation. Aliquots of 25 µL of plasma were spiked with internal standards (PA-824-d5 or morphine) and proteins were precipitated in 1% formic acid in acetonitrile. A partial supernatant from each sample was transferred to a clean plate and diluted in acetonitrile/water (40:60) for pretomanid and deionized water for M50. Supernatant was analyzed for pretomanid or M50 using validated LC-MS/MS methods with a linear range of 20 to 10,000 ng/mL for pretomanid and 10 to 5,000 ng/mL for M50 (methods validated at Alliance Pharma, Malvern PA).
Sample collection time and plasma concentration data were analyzed to derive TK parameters by standard model independent methods based on the mean plasma concentration-time data for each dose group. The TK analyses of the plasma concentration profiles were performed using non-compartmental analysis in Phoenix WinNonlin Professional 7.0 (Certara, L.P., St. Louis, MO, USA). Concentration values below the lower limit of quantitation were treated as zeros for analysis purposes.

Escherichia coli WP2uvrA = assay: Bacterial reverse mutation (Ames) assay, plate incorporation
Description: as §1, §2

[3] = tested on: Salmonella typhimurium TA1535; assay: as above; assay type: cell-based
Description: as §1, §2

[4] = tested on: Salmonella typhimurium TA100; assay: as above; assay type: cell-based
Description: as §1, §2

[5] = tested on: Salmonella typhimurium TA98; assay: as above; assay type: cell-based
Description: as §1, §2

[6] = tested on: Salmonella typhimurium TA1537; assay: as above; assay type: cell-based
Description: as §1, §2

O=[N+]([O-])c1cn2c(n1)OC[C@@H](O)C2 [M50]
Precipitate or cytotoxicity in the Ames assay ([1]; single non-GLP assay): no precipitate or cytotoxicity at any concentration
Mutagenic potential ([1]; with and without S9, non-GLP): genotoxic; also recorded: positive
Exposure to M50 metabolite relative to pretomanid ([2]; all dose levels, both sexes): less than 10%
AUC(0-t) ([2]; female, CByB6F1 (wild-type), mouse, plasma, oral, 80 mg/kg/day, females, highest dose in the carcinogenicity study, read-out: Mean M50 AUC0-24): 10200 ng·h/mL
Mouse M50 AUC0-24 as multiple of estimated human M50 AUC0-24 ([2]; females): approximately 3 X
Mean M50 AUC0-24 ([2]; males, highest dose in the carcinogenicity study): 4600 ng·h/mL
Mouse M50 AUC0-24 as multiple of estimated human M50 AUC0-24 ([2]; males): approximately 1.5 X
Mean Number of Revertants/Plate (Escherichia coli WP2uvrA; WP2uvrA +S9, 78 μg/plate): 18 Revertants/Plate
Mean Number of Revertants/Plate (Escherichia coli WP2uvrA; WP2uvrA +S9, 156 μg/plate): 17 Revertants/Plate
Mean Number of Revertants/Plate (Escherichia coli WP2uvrA; WP2uvrA +S9, 313 μg/plate): 23 Revertants/Plate
Mean Number of Revertants/Plate (Escherichia coli WP2uvrA; WP2uvrA +S9, 625 μg/plate): 48 Revertants/Plate
Mean Number of Revertants/Plate (Escherichia coli WP2uvrA; WP2uvrA +S9, 1250 μg/plate): 50 Revertants/Plate
Mean Number of Revertants/Plate (Escherichia coli WP2uvrA; WP2uvrA +S9, 2500 μg/plate): 50 Revertants/Plate
Mean Number of Revertants/Plate (Escherichia coli WP2uvrA; WP2uvrA −S9, 78 μg/plate): 18 Revertants/Plate
Mean Number of Revertants/Plate (Escherichia coli WP2uvrA; WP2uvrA −S9, 156 μg/plate): 24 Revertants/Plate
Mean Number of Revertants/Plate (Escherichia coli WP2uvrA; WP2uvrA −S9, 313 μg/plate): 26 Revertants/Plate
Mean Number of Revertants/Plate (Escherichia coli WP2uvrA; WP2uvrA −S9, 625 μg/plate): 29 Revertants/Plate
Mean Number of Revertants/Plate (Escherichia coli WP2uvrA; WP2uvrA −S9, 1250 μg/plate): 49 Revertants/Plate
Mean Number of Revertants/Plate (Escherichia coli WP2uvrA; WP2uvrA −S9, 2500 μg/plate): 71 Revertants/Plate
Change in revertant colonies (Escherichia coli WP2uvrA; WP2uvrA, presence and absence of S9): significant increases
Mean Number of Revertants/Plate ([3]; TA1535 +S9, 78 μg/plate): 12 Revertants/Plate
Mean Number of Revertants/Plate ([3]; TA1535 +S9, 156 μg/plate): 15 Revertants/Plate
Mean Number of Revertants/Plate ([3]; TA1535 +S9, 313 μg/plate): 31 Revertants/Plate
Mean Number of Revertants/Plate ([3]; TA1535 +S9, 625 μg/plate): 42 Revertants/Plate
Mean Number of Revertants/Plate ([3]; TA1535 +S9, 1250 μg/plate): 67 Revertants/Plate
Mean Number of Revertants/Plate ([3]; TA1535 +S9, 2500 μg/plate): 81 Revertants/Plate
Change in revertant colonies ([3]; TA1535, presence and absence of S9): significant increases
Mean Number of Revertants/Plate ([3]; TA1535 −S9, 78 μg/plate): 20 Revertants/Plate
Mean Number of Revertants/Plate ([3]; TA1535 −S9, 156 μg/plate): 16 Revertants/Plate
Mean Number of Revertants/Plate ([3]; TA1535 −S9, 313 μg/plate): 19 Revertants/Plate
Mean Number of Revertants/Plate ([3]; TA1535 −S9, 625 μg/plate): 24 Revertants/Plate
Mean Number of Revertants/Plate ([3]; TA1535 −S9, 1250 μg/plate): 43 Revertants/Plate
Mean Number of Revertants/Plate ([3]; TA1535 −S9, 2500 μg/plate): 60 Revertants/Plate
Mean Number of Revertants/Plate ([4]; TA100 +S9, 78 μg/plate): 132 Revertants/Plate
Mean Number of Revertants/Plate ([4]; TA100 +S9, 156 μg/plate): 125 Revertants/Plate
Mean Number of Revertants/Plate ([4]; TA100 +S9, 313 μg/plate): 252 Revertants/Plate
Mean Number of Revertants/Plate ([4]; TA100 +S9, 625 μg/plate): 312 Revertants/Plate
Mean Number of Revertants/Plate ([4]; TA100 +S9, 1250 μg/plate): 666 Revertants/Plate
Mean Number of Revertants/Plate ([4]; TA100 +S9, 2500 μg/plate): 758 Revertants/Plate
Change in revertant colonies ([4]; TA100, presence and absence of S9): significant increases
Mean Number of Revertants/Plate ([4]; TA100 −S9, 78 μg/plate): 120 Revertants/Plate
Mean Number of Revertants/Plate ([4]; TA100 −S9, 156 μg/plate): 135 Revertants/Plate
Mean Number of Revertants/Plate ([4]; TA100 −S9, 313 μg/plate): 203 Revertants/Plate
Mean Number of Revertants/Plate ([4]; TA100 −S9, 625 μg/plate): 294 Revertants/Plate
Mean Number of Revertants/Plate ([4]; TA100 −S9, 1250 μg/plate): 588 Revertants/Plate
Mean Number of Revertants/Plate ([4]; TA100 −S9, 2500 μg/plate): 868 Revertants/Plate
Mean Number of Revertants/Plate ([5]; TA98 +S9, 78 μg/plate): 18 Revertants/Plate
Mean Number of Revertants/Plate ([5]; TA98 +S9, 156 μg/plate): 19 Revertants/Plate
Mean Number of Revertants/Plate ([5]; TA98 +S9, 313 μg/plate): 22 Revertants/Plate
Mean Number of Revertants/Plate ([5]; TA98 +S9, 625 μg/plate): 25 Revertants/Plate
Mean Number of Revertants/Plate ([5]; TA98 +S9, 1250 μg/plate): 24 Revertants/Plate
Mean Number of Revertants/Plate ([5]; TA98 +S9, 2500 μg/plate): 38 Revertants/Plate
Change in revertant colonies ([5]; TA98, presence of S9): significant increases
Mean Number of Revertants/Plate ([5]; TA98 −S9, 78 μg/plate): 13 Revertants/Plate
Mean Number of Revertants/Plate ([5]; TA98 −S9, 156 μg/plate): 16 Revertants/Plate
Mean Number of Revertants/Plate ([5]; TA98 −S9, 313 μg/plate): 14 Revertants/Plate
Mean Number of Revertants/Plate ([5]; TA98 −S9, 625 μg/plate): 17 Revertants/Plate
Mean Number of Revertants/Plate ([5]; TA98 −S9, 1250 μg/plate): 21 Revertants/Plate
Mean Number of Revertants/Plate ([5]; TA98 −S9, 2500 μg/plate): 33 Revertants/Plate
Mean Number of Revertants/Plate ([6]; TA1537 +S9, 78 μg/plate): 9 Revertants/Plate
Mean Number of Revertants/Plate ([6]; TA1537 +S9, 156 μg/plate): 12 Revertants/Plate
Mean Number of Revertants/Plate ([6]; TA1537 +S9, 313 μg/plate): 8 Revertants/Plate
Mean Number of Revertants/Plate ([6]; TA1537 +S9, 625 μg/plate): 14 Revertants/Plate
Mean Number of Revertants/Plate ([6]; TA1537 +S9, 1250 μg/plate): 20 Revertants/Plate
Mean Number of Revertants/Plate ([6]; TA1537 +S9, 2500 μg/plate): 11 Revertants/Plate
Change in revertant colonies ([6]; TA1537, absence of S9): significant increases
Mean Number of Revertants/Plate ([6]; TA1537 −S9, 78 μg/plate): 8 Revertants/Plate
Mean Number of Revertants/Plate ([6]; TA1537 −S9, 156 μg/plate): 13 Revertants/Plate
Mean Number of Revertants/Plate ([6]; TA1537 −S9, 313 μg/plate): 7 Revertants/Plate
Mean Number of Revertants/Plate ([6]; TA1537 −S9, 625 μg/plate): 13 Revertants/Plate
Mean Number of Revertants/Plate ([6]; TA1537 −S9, 1250 μg/plate): 10 Revertants/Plate
Mean Number of Revertants/Plate ([6]; TA1537 −S9, 2500 μg/plate): 18 Revertants/Plate
